Assay results published in patent US20260092061A1, “COMPOUNDS FOR TARGETED PROTEIN DEGRADATION” (Amphista Therapeutics Limited, priority 2022, published 2026).
Like-named read-outs stand apart in the source and are kept apart here.

Molecular target: T1, BRD9 (Homo sapiens, UniProt Q9H8M2)
T1 sequence (Q9H8M2 1-597): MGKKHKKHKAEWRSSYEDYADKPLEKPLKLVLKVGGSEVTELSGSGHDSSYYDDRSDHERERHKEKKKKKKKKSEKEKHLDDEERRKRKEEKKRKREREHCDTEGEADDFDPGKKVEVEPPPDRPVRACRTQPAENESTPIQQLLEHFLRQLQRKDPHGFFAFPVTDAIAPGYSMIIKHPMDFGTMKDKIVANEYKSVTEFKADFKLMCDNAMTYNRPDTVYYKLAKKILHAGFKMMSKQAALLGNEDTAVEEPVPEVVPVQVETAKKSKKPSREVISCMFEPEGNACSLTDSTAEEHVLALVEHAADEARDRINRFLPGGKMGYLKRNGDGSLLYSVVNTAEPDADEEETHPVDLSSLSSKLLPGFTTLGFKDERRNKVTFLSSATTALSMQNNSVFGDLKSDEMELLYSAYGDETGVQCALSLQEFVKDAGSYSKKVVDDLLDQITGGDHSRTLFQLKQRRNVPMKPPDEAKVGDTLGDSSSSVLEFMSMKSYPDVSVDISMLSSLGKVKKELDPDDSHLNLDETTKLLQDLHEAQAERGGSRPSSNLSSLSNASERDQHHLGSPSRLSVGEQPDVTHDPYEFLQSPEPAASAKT
Test: Degradation of BRD9 (IF), immunofluorescence in MV4-11 cells, 24 hours (Assay Protocol 2)
Format: cell-based
Parameters: A suspension of MV4-11 cells (ATCC CRL-9591) was prepared; host or cells: MV4-11
Settings: BRD9 degradation; for DC50: read-out: DC50
Experimental: Assay Protocol 2—Degradation of BRD9 (IF)
A suspension of MV4-11 cells (ATCC CRL-9591) was prepared in phenol red-free assay media (IMDM Thermo Scientific 21056023+10% FBS ATCC 302025) and cells were seeded at 20,000 cells per well (45 μL) in sterile black poly-d-lysine coated 384 well plates (Greiner 781948). Compounds were prepared at 1000× final concentration in DMSO, diluted 1:100 in assay media, and 5 μL compound was added to each well of the cell plate. Cells were incubated for 24 hours at 37° C. with 5% CO2. All the following incubations for immunofluorescence staining were at room temperature. 15 μL of 16% PFA was added to each well (3.7% final concentration) and the cells were fixed for 15 min then washed twice with DPBS. Cells were permeabilised with 0.1% Triton X-100 for 10 min, Triton X-100 was removed, then blocked with 1% BSA in DPBS for 1 hour. Cells were stained with 25 μL anti-BRD9 E4Q3F antibody (CST 48306) diluted 1:25600 in 1% BSA in DPBS for 2-3 hours. Wels were washed twice with DPBS then incubated with 25 μL of 1% BSA containing a 1:1000 dilution of Anti-rabbit Alexa Fluor™ 647 secondary antibody (Thero Scientific A21244) and 1 μg/mL Hoechst nuclear counter stain (Abcam ab228551) for 1 hour. Wells were washed twice with DPBS prior to imaging on a Perkin Elmer Operetta CLS with 10× air lens. Images were processed using Harmony High-Content Imaging and Analysis Software (Perkin Elmer) and the mean contrast ratio of Alexa Fluor™ 647 in central nuclei was used to quantify BRD9 protein levels. Data was further analysed using Dotmatics software and % BRD9 remaining was calculated by normalisation to average data from high and low control wells (cells treated with DMSO or 100 nM CFT-8634 respectively).

[1] = MV4-11, Assay protocol 2, read-out: Dmax

With `COc1ccc(F)c(/C=C(\C#N)C(=O)N2CCc3c(CN4CCN(Cc5c(OC)cc(-c6cn(C)c(=O)c(C)c6C)cc5OC)CC4)cccc3C2C)c1` (mixture of isomers) [Compound B93, (E/Z)-2-(5-((4-(2,6-dimethoxy-4-(1,4,5-trimethyl-6-oxo-1,6-dihydropyridin-3-yl)benzyl)piperazin-1-yl)methyl)-1-methyl-1,2,3,4-tetrahydroisoquinoline-2-carbonyl)-3-(2-fluoro-5-methoxyphenyl)acrylonitrile] the DC50 (Assay protocol 2) was 1.25 to 10 nM and the Dmax [1] was 40 to 70%.
`COc1cc(-c2cn(C)c(=O)c(C)c2C)cc(OC)c1CN1CCC(COc2cccc3c2CCN(C(=O)/C(C#N)=C/c2cccc(Br)n2)C3C)CC1` (mixture of isomers) [Compound B95, (E/Z)-3-(6-bromopyridin-2-yl)-2-(5-((1-(2,6-dimethoxy-4-(1,4,5-trimethyl-6-oxo-1,6-dihydropyridin-3-yl)benzyl)piperidin-4-yl)methoxy)-1-methyl-1,2,3,4-tetrahydroisoquinoline-2-carbonyl)acrylonitrile] gave a DC50 (Assay protocol 2) of less than 1.25 nM and a Dmax [1] of 70 to 75%.
Work on `COc1cc(-c2cn(C)c(=O)c3[nH]ncc23)cc(OC)c1CN1CCN(Cc2cccc3c2CCN(C(=O)/C(C#N)=C/c2cccc(Br)n2)C3C)CC1` (mixture of isomers) [Compound B96, (E/Z)-3-(6-bromopyridin-2-yl)-2-(5-((4-(2,6-dimethoxy-4-(6-methyl-7-oxo-6,7-dihydro-1H-pyrazolo[3,4-c]pyridin-4-yl)benzyl)piperazin-1-yl)methyl)-1-methyl-1,2,3,4-tetrahydroisoquinoline-2-carbonyl)acrylonitrile] yielded a DC50 (Assay protocol 2) of 1.25 to 10 nM and a Dmax [1] of 40 to 70%.
Work on `COc1cc(-c2cn(C)c(=O)c(C)c2C)cc(OC)c1CN1CCN(Cc2cccc3c2CCN(C(=O)/C(C#N)=C/C(C)(C)C)C3C)C(C)(C)C1` (mixture of isomers) [Compound B98, (E/Z)-2-(5-((4-(2,6-dimethoxy-4-(1,4,5-trimethyl-6-oxo-1,6-dihydropyridin-3-yl)benzyl)-2,2-dimethylpiperazin-1-yl)methyl)-1-methyl-1,2,3,4-tetrahydroisoquinoline-2-carbonyl)-4,4-dimethylpent-2-enenitrile] yielded a DC50 (Assay protocol 2) of 10 to 25 nM and a Dmax [1] greater than 75%.
For `COc1cc(-c2cn(C)c(=O)c(C)c2C)cc(OC)c1CN1CCN(Cc2cccc3c2CCN(C(=O)C(C#N)=Cc2cccc(Br)n2)C3C)C(C)(C)C1` (mixture of isomers) [Compound B99, (E/Z)-3-(6-bromopyridin-2-yl)-2-(5-((4-(2,6-dimethoxy-4-(1,4,5-trimethyl-6-oxo-1,6-dihydropyridin-3-yl)benzyl)-2,2-dimethylpiperazin-1-yl)methyl)-1-methyl-1,2,3,4-tetrahydroisoquinoline-2-carbonyl)acrylonitrile], the Dmax (Assay protocol 2) was “+ (+ = >40% and <70%)” and the DC50 (Assay protocol 2) was 25 to 1000 nM.
`COc1cc(-c2cn(C)c(=O)c(C)c2C)cc(OC)c1CN1C[C@H](C)N(Cc2cccc3c2CCN(C(=O)/C(C#N)=C/C(C)(C)C)C3C)[C@@H](C)C1` (mixture of isomers) [Compound B100, (E/Z)-2-(5-(((2S,6S)-4-(2,6-dimethoxy-4-(1,4,5-trimethyl-6-oxo-1,6-dihydropyridin-3-yl)benzyl)-2,6-dimethylpiperazin-1-yl)methyl)-1-methyl-1,2,3,4-tetrahydroisoquinoline-2-carbonyl)-4,4-dimethylpent-2-enenitrile] was tested, and the DC50 (Assay protocol 2) was 25 to 1000 nM and the Dmax [1] was 70 to 75%.
For `COc1cc(-c2cn(C)c(=O)c(C)c2C)cc(OC)c1CN1CC2CCC1CN2Cc1cccc2c1CCN(C(=O)/C(C#N)=C/C(C)(C)C)C2C` (mixture of isomers) [Compound B101, (E/Z)-2-(5-((5-(2,6-dimethoxy-4-(1,4,5-trimethyl-6-oxo-1,6-dihydropyridin-3-yl)benzyl)-2,5-diazabicyclo[2.2.2]octan-2-yl)methyl)-1-methyl-1,2,3,4-tetrahydroisoquinoline-2-carbonyl)-4,4-dimethylpent-2-enenitrile], the DC50 (Assay protocol 2) was 1.25 to 10 nM and the Dmax [1] was 40 to 70%.
Compound `COc1cc(-c2cn(C)c(=O)c(C)c2C)cc(OC)c1CN1CCN(Cc2cccc3c2CCN(C(=O)/C(C#N)=C/C(C)(C)C)C3C)[C@@H](C)C1` (mixture of isomers) [Compound B102] has a DC50 (Assay protocol 2) of 25 to 1000 nM and a Dmax [1] greater than 75%.
Work on `COc1cc(-c2cn(C)c(=O)c(C)c2C)cc(OC)c1CN1CCN(Cc2cccc3c2CCN(C(=O)/C(C#N)=C/C(C)(C)C)C3C)CC12CC2` (mixture of isomers) [Compound B103, (E/Z)-2-(5-((4-(2,6-dimethoxy-4-(1,4,5-trimethyl-6-oxo-1,6-dihydropyridin-3-yl)benzyl)-4,7-diazaspiro[2.5]octan-7-yl)methyl)-1-methyl-1,2,3,4-tetrahydroisoquinoline-2-carbonyl)-4,4-dimethylpent-2-enenitrile] yielded a DC50 (Assay protocol 2) of 1.25 to 10 nM and a Dmax [1] greater than 75%.
For `COc1cc(-c2cn(C)c(=O)c3[nH]ncc23)cc(OC)c1CN1CCN(Cc2cccc3c2CCN(C(=O)/C(C#N)=C/C(C)(C)C)C3C)C2(CC2)C1` (mixture of isomers) [Compound B104, (E/Z)-2-(5-((7-(2,6-dimethoxy-4-(6-methyl-7-oxo-6,7-dihydro-1H-pyrazolo[3,4-c]pyridin-4-yl)benzyl)-4,7-diazaspiro[2.5]octan-4-yl)methyl)-1-methyl-1,2,3,4-tetrahydroisoquinoline-2-carbonyl)-4,4-dimethylpent-2-enenitrile], the DC50 (Assay protocol 2) was less than 1.25 nM and the Dmax [1] was greater than 75%.
Work on `COc1cc(-c2cn(C)c(=O)c(C)c2C)cc(OC)c1CN1CCN(c2cccc(C3CCCN3C(=O)/C(C#N)=C/C(C)C)c2)CC1` (mixture of isomers) [Compound B106, (E/Z)-2-(2-(3-(4-(2,6-dimethoxy-4-(1,4,5-trimethyl-6-oxo-1,6-dihydropyridin-3-yl)benzyl)piperazin-1-yl)phenyl)pyrrolidine-1-carbonyl)-4-methylpent-2-enenitrile] yielded a DC50 (Assay protocol 2) of 1.25 to 10 nM and a Dmax [1] greater than 75%.
`COc1cc(-c2cn(C)c(=O)c3ccsc23)cc(OC)c1CN1CCN(Cc2cccc3c2CCN(C(=O)/C(C#N)=C/C(C)(C)C)C3C)C2(CC2)C1` (mixture of isomers) [Compound B107, (E/Z)-2-(5-((7-(2,6-dimethoxy-4-(5-methyl-4-oxo-4,5-dihydrothieno[3,2-c]pyridin-7-yl)benzyl)-4,7-diazaspiro[2.5]octan-4-yl)methyl)-1-methyl-1,2,3,4-tetrahydroisoquinoline-2-carbonyl)-4,4-dimethylpent-2-enenitrile] was tested, and the DC50 (Assay protocol 2) was less than 1.25 nM and the Dmax [1] was greater than 75%.
`COc1cc(-c2cn(C)c(=O)c3ccsc23)cc(OC)c1CN1CCN(Cc2cccc3c2CCN(C(=O)/C(C#N)=C/c2cccc(Br)n2)C3C)C2(CC2)C1` (mixture of isomers) [Compound B108, (E/Z)-3-(6-bromopyridin-2-yl)-2-(5-((7-(2,6-dimethoxy-4-(5-methyl-4-oxo-4,5-dihydrothieno[3,2-c]pyridin-7-yl)benzyl)-4,7-diazaspiro[2.5]octan-4-yl)methyl)-1-methyl-1,2,3,4-tetrahydroisoquinoline-2-carbonyl)acrylonitrile] showed a DC50 (Assay protocol 2) of less than 1.25 nM and a Dmax [1] greater than 75%.
